Values quoted from earlier work, collected in patent publication US9907782B2, “Treatment or prevention of seborrheic keratosis using artemisinin and derivatives thereof” (EPIPHARM AG, priority 2014, dated 2018).
Values belong to the compound of their own block, whether it stands above or below them.

Legend:
tyrosinase = biological target: T1, tyrosinase (Homo sapiens, UniProt P14679); conditions: according to US 2010/0061948 A1, allegedly
T1 sequence (P14679 19-529): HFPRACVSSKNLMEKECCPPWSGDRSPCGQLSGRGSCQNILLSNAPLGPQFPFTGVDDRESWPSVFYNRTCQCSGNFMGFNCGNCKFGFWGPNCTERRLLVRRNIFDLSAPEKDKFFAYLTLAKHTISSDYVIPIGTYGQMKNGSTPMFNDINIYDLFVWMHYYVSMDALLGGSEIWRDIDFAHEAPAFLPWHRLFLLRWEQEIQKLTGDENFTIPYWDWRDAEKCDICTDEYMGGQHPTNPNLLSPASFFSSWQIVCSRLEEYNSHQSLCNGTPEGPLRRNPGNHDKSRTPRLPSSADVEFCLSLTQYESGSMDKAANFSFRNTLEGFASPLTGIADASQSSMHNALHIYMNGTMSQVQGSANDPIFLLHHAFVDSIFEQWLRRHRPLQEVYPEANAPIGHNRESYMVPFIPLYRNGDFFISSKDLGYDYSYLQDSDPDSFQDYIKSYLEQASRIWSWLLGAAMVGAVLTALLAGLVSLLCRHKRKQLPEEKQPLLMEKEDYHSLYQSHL

psoriasis = conditions: topical; three psoriasis patients
melanin synthesis = conditions: according to US 2010/0061948 A1, allegedly
[1] = test system: seborrheic keratosis lesions; conditions: for clinical improvement: once daily application, calcipotriene 0.005% ointment, imiquimod 5% cream
[2] = test system: seborrheic keratosis lesions

tyrosinase activity (tyrosinase): suppressed | solubility in water: very hard to dissolve in water
SMILES: C[C@@H]1CC[C@H]2[C@@H](C)C(=O)O[C@@H]3O[C@@]4(C)CC[C@@H]1[C@]32OO4 [artemisinin]
treatment of psoriasis (psoriasis): successfully | melanin synthesis (melanin synthesis): suppressed

solubility in water: more water-soluble
SMILES: C[C@H]1[C@H](OC(=O)CCC(=O)O)O[C@@H]2O[C@@]3(C)CC[C@H]4[C@H](C)CC[C@@H]1[C@@]24OO3 [artesunate]

SMILES: C=C1/C(=C\C=C2/CCC[C@]3(C)[C@@H]([C@H](C)/C=C/[C@@H](O)C4CC4)CC[C@@H]23)C[C@@H](O)C[C@@H]1O [calcipotriene]
clinical improvement ([1]; tazarotene 0.1% cream): did not result in any clinical improvement

solubility in water: more water-soluble
SMILES: C[C@H]1[C@@H](O)O[C@@H]2O[C@@]3(C)CC[C@H]4[C@H](C)CC[C@@H]1[C@@]24OO3 [dihydroartemisinin]

SMILES: CC(C)Cn1cnc2c(N)nc3ccccc3c21 [imiquimod]
clinical improvement ([1]; tazarotene 0.1% cream): did not result in any clinical improvement

SMILES: CCOC(=O)c1ccc(C#Cc2ccc3c(c2)C(C)(C)CCS3)nc1 [tazarotene]
clinical and histological improvement ([1]; bi-daily application, tazarotene 0.1% cream): less than half the patients | clinical improvement ([1]; tazarotene 0.1% cream): did not result in any clinical improvement | patients reporting burning, pruritus and redness (irritation) ([1]; topical tazarotene): ⅔

SMILES: NC(N)=O [urea]
side effects ([2]; 50% urea under occlusion): no side effects were reported | thickness of seborrheic keratosis lesions ([2]; 50% urea under occlusion and digitally scraping the lesions, lesions did persist albeit with reduced size): some reduction of the thickness
